# US20220378761A1, “PAPD5 Inhibition As A Treatment For Dyskeratosis Congenita, Aplastic Anemia And Myelodysplastic Syndrome Caused By Reduced Telomerase RNA Levels” (The Regents of The University of Colorado, A Body Corporate, priority 2019, published 2022)
# Tests used:
# Format in all cases: cell-based, Homo sapiens
# HeLa cells = experiment: Toxicity in RG7834-treated HeLa cells; conditions: duration of the experiments
# telomerase = experiment: Telomerase activity by telomere repeat amplification (TRAP) in HeLa cells; design: dose or concentration left out as unconfirmed; conditions: DKC1- and PARN-depleted HeLa cells, RG7834 or DMSO (FIG. 1D)
# Procedure: (§1) Th present inventors have previously shown that in DKC1- or PARN-depleted cells, TERC accumulates in cytoplasmic puncta called “cyTER bodies,” instead of its normal localization to cajal bodies in the nucleus. To investigate whether RG7834 treatment rescued TERC localization to cajal bodies in the nucleus, DKC1- or PARN-depleted cells were treated with RG7834 for 2 days. […] Upon treatment with RG7834, —38% of cells had TERC localized to cajal bodies, which is consistent with the 1.5× increase in TERC levels in these cells. RG7834 treatment also rescued TERC localization to cajal bodies in PARN-depleted cells. In PARN knockdown cells, ˜34% of cells had TERC in cajal bodies, with TERC also mostly being localized to cyTER bodies in these cells. However, upon RG7834 treatment, ˜85% of cells had TERC localized to cajal bodies.
# Detection of telomerase activity: Telomerase activity was assessed by Telomere Repeat Amplification Protocol (TRAP). Briefly, cells were lysed in NP-40 buffer at 4° C. for 20 min and centrifuged at 13,000 rpm for 10 min. Telomere extension reactions were performed using 2, 0.5, and 0.125 μg of protein and following products were amplified by PCR. Adenosine triphosphate, labeled on the gamma phosphate group with 32P (Perkin-Elmer, USA) was used for labelling of PCR products. […]
# DKC1_A353V hESCs = experiment: Colony forming culture assay of definitive hematopoietic progenitors; conditions: day 28 of differentiation, DKC1_A353V cells, different concentrations
# Description: Because bone marrow failure is the leading cause of death in DC, the present inventors wanted to analyze the consequences of RG7834 treatment in DKC1_A353V cells during definitive hematopoietic differentiation. There are no animal models that faithfully recapitulate the hematopoietic defects observed in patients harboring pathogenic mutations in DKC1 or PARN; therefore, the present inventors followed established protocols of hESC differentiation into hematopoietic lineages. These protocols recapitulate, in vitro, the major aspects of blood development in vivo, a strategy shown to accurately model key aspects of DC. A schematic of the protocol is depicted in FIG. 6. […] These observations provide compelling evidence that chemical inhibition of PAPD5, in addition to rescuing telomerase function, is sufficient to increase definitive, multilineage, hematopoietic potential in DKC1_A353V mutants.
# Colony forming culture assays: Colony assays were performed using MethoCult H4034 Optimum (StemCell Technologies, Vancouver, Canada). […] Cells were maintained in 5% CO2 and 5% O2 incubator for 8 days and then placed into 1 ml of MethoCult in which the colonies forming were measured after 12 days. […]
# TERC [1] = experiment: TERC quantification by qRT-PCR in DKC1_A353V hESCs; conditions: for TERC levels: DKC1_A353V hESCs
# Description: Treatment of DKC1_A353V hESCs with RG7834 caused a >15-fold reduction in the 3′-end oligoadenylation of TERC, indicating efficient PAPD5 inhibition in these cells (FIG. 2A).
# RNA extraction and Quantitative real-time PCR: Total RNA was isolated using Trizol (Invitrogen) in accordance with the manufacturer's instructions followed by Turbo DNA-free DNase (Invitrogen) treatment. RNA was converted into cDNA using Superscript III First Strand synthesis kit (Invitrogen) following manufacturer's instructions. Real-time PCR was performed using Evagreen master mix (Lambda Biotech, St. Louis, Mo.) on a StepOne Plus instrument DNase treatment (Thermo Fisher Scientific). For TERC analysis, Brilliant II 1-step qRT-PCR master mix (Agilent, Santa Clara, Calif.) was used following manufacturer's instructions. Reactions were performed in triplicates with 100 ng of RNA per reaction and used gene-specific (for/rev) primers were as follows: […]
# TERC [2] = experiment: TERC localization to cajal bodies by fluorescent microscopy (coilin IF, TERC FISH) in HeLa cells; conditions: RG7834 for 2 days
# Procedure: as §1
# Fluorescent microscopy for Cajal bodies and TERC: Cells were seeded directly on glass coverslips (ethanol washed) in 6-well plates and transfected and drug treated as previously described. Coverslips were washed once with 1× DPBS and fixed with 4% formaldehyde in 1× DPBS at room temperature for 10 minutes. Cells were permeabilized in 0.2% Triton 1× DPBS for 10 minutes, and then incubated with rabbit anti-Coilin (Santa Cruz) for 1 hour at room temperature. […]
compound,measurement,setting,value
COCCCOc1cc2c(cc1OC)-c1cc(=O)c(C(=O)O)cn1[C@H](C(C)C)C2 [RG7834],toxicity in RG7834-treated cells,HeLa cells,No cellular toxicity was observed
same,telomerase activity,telomerase,increase telomerase activity
same,definitive hematopoietic colony potential,DKC1_A353V hESCs,significantly increased the hematopoietic potential
same,TERC levels,TERC [1]; 4 days of treatment,significant increase in TERC levels
same,TERC levels,"TERC [1]; continuous treatment up to 30 days, different concentrations",sustained up to 30 days
same,TERC levels in the stem cell model of DC,TERC [1]; stem cells carrying disease-causing DKC1 mutations,partially rescued TERC levels
same,cells with TERC localized to cajal bodies,TERC [2]; DKC1 knockdown,~38%
same,cells with TERC localized to cajal bodies,TERC [2]; PARN knockdown,~85%
